Measured values published in ChEMBL document CHEMBL5260810, “Inhibition of bromodomain-containing protein 9 for the prevention of epigenetically-defined drug resistance” (Bioorg Med Chem Lett, 2017).

What was measured:
Format in all cases: functional, cell-based
[1] = Cytotoxicity against human SNU-216 cells measured after 8 days; conditions: SNU-216, 192 h
TK-10 = test: Cytotoxicity against human TK-10 cells measured after 8 days; conditions: TK-10, 192 h
IGR-1 = test: Cytotoxicity against human IGR-1 cells measured after 8 days; conditions: IGR-1, 192 h
[2] = Cytotoxicity against human NCI-H196 cells measured after 8 days; conditions: NCI-H196, 192 h
Panc1005 = test: Cytotoxicity against human Panc1005 cells measured after 8 days; conditions: Panc1005, 192 h
JIYOYE = test: Cytotoxicity against human JIYOYE cells measured after 8 days; conditions: 192 h
NCI-H187 = test: Cytotoxicity against human NCI-H187 cells measured after 8 days; conditions: NCI-H187, 192 h
SF-539 = test: Cytotoxicity against human SF-539 cells measured after 8 days; conditions: SF-539, 192 h
[3] = Cytotoxicity against human Panc 05.04 cells measured after 8 days; conditions: Panc 05.04, 192 h
[4] = Cytotoxicity against human NCI-H2369 cells measured after 8 days; conditions: NCI-H2369, 192 h
NCI-H929 = test: Cytotoxicity against human NCI-H929 cells measured after 8 days; conditions: NCI-H929, 192 h
[5] = Cytotoxicity against human HEC-50B cells measured after 8 days; conditions: 192 h
COLO-679 = test: Cytotoxicity against human COLO-679 cells measured after 8 days; conditions: COLO-679, 192 h
ML-2 = test: Cytotoxicity against human ML-2 cells measured after 8 days; conditions: ML-2, 192 h
[6] = Cytotoxicity against human NCE-G 122 cells measured after 8 days; conditions: NCE-G 122, 192 h
NB1 = test: Cytotoxicity against human NB1 cells measured after 8 days; conditions: NB1, 192 h
[7] = Cytotoxicity against human PK-8 cells measured after 8 days; conditions: PK-8, 192 h
[8] = Cytotoxicity against human BICR 22 cells measured after 8 days; conditions: BICR 22, 192 h
KYSE-510 = test: Cytotoxicity against human KYSE-510 cells measured after 8 days; conditions: KYSE-510, 192 h
[9] = Cytotoxicity against human COV413A cells measured after 8 days; conditions: 192 h
[10] = Cytotoxicity against human SKG-II cells measured after 8 days; conditions: 192 h
[11] = Cytotoxicity against human TC71 cells measured after 8 days; conditions: TC-71, 192 h
OAW-42 = test: Cytotoxicity against human OAW-42 cells measured after 8 days; conditions: OAW-42, 192 h
769-P = test: Cytotoxicity against human 769-P cells measured after 8 days; conditions: 192 h
[12] = Cytotoxicity against human UM-RC-6 cells measured after 8 days; conditions: UM-RC-6, 192 h
MDA-MB-453 = test: Cytotoxicity against human MDA-MB-453 cells measured after 8 days; conditions: MDA-MB-453, 192 h
[13] = Cytotoxicity against human KPR3351 cells measured after 8 days; conditions: KPR3351, 192 h
[14] = Cytotoxicity against human KE-39 cells measured after 8 days; conditions: KE-39, 192 h
Skut1B = test: Cytotoxicity against human Skut1B cells measured after 8 days; conditions: 192 h
Ca-Ski = test: Cytotoxicity against human Ca-Ski cells measured after 8 days; conditions: 192 h
SW837 = test: Cytotoxicity against human SW837 cells measured after 8 days; conditions: SW837, 192 h
[15] = Cytotoxicity against human DEOC-1 cells measured after 8 days; conditions: DEOC-1, 192 h
KYSE-450 = test: Cytotoxicity against human KYSE-450 cells measured after 8 days; conditions: KYSE-450, 192 h
EFO-27 = test: Cytotoxicity against human EFO-27 cells measured after 8 days; conditions: EFO-27, 192 h
SNB-19 = test: Cytotoxicity against human SNB-19 cells measured after 8 days; conditions: SNB-19, 192 h
TOV112D = test: Cytotoxicity against human TOV112D cells measured after 8 days; conditions: 192 h
WM-115 = test: Cytotoxicity against human WM-115 cells measured after 8 days; conditions: WM-115, 192 h
[16] = Cytotoxicity against human COLO 794 cells measured after 8 days; conditions: COLO 794, 192 h
LN-229 = test: Cytotoxicity against human LN-229 cells measured after 8 days; conditions: LN-229, 192 h
MPC-11 = test: Cytotoxicity against mouse MPC-11 cells measured after 8 days; conditions: MPC-11, 192 h
KYSE-520 cell line = test: Cytotoxicity against human KYSE520 cells measured after 8 days; conditions: KYSE-520, 192 h
[17] = Cytotoxicity against human Hs 852.T cells measured after 8 days; conditions: 192 h
[18] = Cytotoxicity against human SK23 cells measured after 8 days; conditions: SK-MEL-23, 192 h
[19] = Cytotoxicity against human BICR 10 cells measured after 8 days; conditions: BICR 10, 192 h
SK-N-SH = test: Cytotoxicity against human SK-N-SH cells measured after 8 days; conditions: 192 h
MKN-74 = test: Cytotoxicity against human MKN-74 cells measured after 8 days; conditions: MKN-74, 192 h
COLO-829 = test: Cytotoxicity against human COLO-829 cells measured after 8 days; conditions: COLO-829, 192 h
SNU-475 = test: Cytotoxicity against human SNU-475 cells measured after 8 days; conditions: SNU-475, 192 h
LXFL 529 = test: Cytotoxicity against human LXFL 529 cells measured after 8 days; conditions: LXFL 529, 192 h
[20] = Cytotoxicity against human COR-L26 cells measured after 8 days; conditions: COR-L26, 192 h
CAKI-1 = test: Cytotoxicity against human CAKI-1 cells measured after 8 days; conditions: CAKI-1, 192 h
Hep 3B2 = test: Cytotoxicity against human Hep 3B2.1-7 cells measured after 8 days; conditions: Hep3B, 192 h
RL95-2 = test: Cytotoxicity against human RL95-2 cells measured after 8 days; conditions: RL95-2, 192 h
PANC-1 = test: Cytotoxicity against human PANC-1 cells measured after 8 days; conditions: PANC-1, 192 h
G-402 = test: Cytotoxicity against human G-402 cells measured after 8 days; conditions: G-402, 192 h
[21] = Cytotoxicity against human 537-mel cells measured after 8 days; conditions: 192 h
[22] = Cytotoxicity against human KP-N-SI9s cells measured after 8 days; conditions: 192 h
[23] = Cytotoxicity against human Fu97 cells measured after 8 days; conditions: Fu97, 192 h
HEC-1-A = test: Cytotoxicity against human HEC-1-A cells measured after 8 days; conditions: 192 h
HuCCT-1 = test: Cytotoxicity against human HuCCT-1 cells measured after 8 days; conditions: HuCCT-1, 192 h
U-266 = test: Cytotoxicity against human U266B1 cells measured after 8 days; conditions: U-266, 192 h

SMILES: C/C=C/Cn1cc(-c2ccc(C(C)(C)O)cc2OC)c2cc[nH]c2c1=O
- IC50 [1]: 20 µM
- IC50 (TK-10): 20 µM
- IC50 (IGR-1): 20 µM
- IC50 [2]: 20 µM
- IC50 (Panc1005): 20 µM
- IC50 (JIYOYE): 13.5 µM
- IC50 (NCI-H187): 20 µM
- IC50 (SF-539): 20 µM
- IC50 [3]: 20 µM
- IC50 [4]: 20 µM
- IC50 (NCI-H929): 20 µM
- IC50 [5]: 20 µM
- IC50 (COLO-679): 20 µM
- IC50 (ML-2): 20 µM
- IC50 [6]: 20 µM
- IC50 (NB1): 10.2 µM
- IC50 [7]: 20 µM
- IC50 [8]: 20 µM
- IC50 (KYSE-510): 20 µM
- IC50 [9]: 20 µM
- IC50 [10]: 20 µM
- IC50 [11]: 13.9 µM
- IC50 (OAW-42): 20 µM
- IC50 (769-P): 20 µM
- IC50 [12]: 20 µM
- IC50 (MDA-MB-453): 20 µM
- IC50 [13]: 20 µM
- IC50 [14]: 20 µM
- IC50 (Skut1B): 20 µM
- IC50 (Ca-Ski): 20 µM
- IC50 (SW837): 20 µM
- IC50 [15]: 20 µM
- IC50 (KYSE-450): 20 µM
- IC50 (EFO-27): 20 µM
- IC50 (SNB-19): 20 µM
- IC50 (TOV112D): 20 µM
- IC50 (WM-115): 20 µM
- IC50 [16]: 20 µM
- IC50 (LN-229): 20 µM
- IC50 (MPC-11): 16.5 µM
- IC50 (KYSE-520 cell line): 14.4 µM
- IC50 [17]: 20 µM
- IC50 [18]: 6.07 µM
- IC50 [19]: 20 µM
- IC50 (SK-N-SH): 20 µM
- IC50 (MKN-74): 20 µM
- IC50 (COLO-829): 20 µM
- IC50 (SNU-475): 20 µM
- IC50 (LXFL 529): 20 µM
- IC50 [20]: 20 µM
- IC50 (CAKI-1): 20 µM
- IC50 (Hep 3B2): 20 µM
- IC50 (RL95-2): 20 µM
- IC50 (PANC-1): 20 µM
- IC50 (G-402): 11.7 µM
- IC50 [21]: 20 µM
- IC50 [22]: 20 µM
- IC50 [23]: 20 µM
- IC50 (HEC-1-A): 20 µM
- IC50 (HuCCT-1): 20 µM
- IC50 (U-266): 20 µM

SMILES: C/C=C/Cn1cc(-c2ccc(C(=O)N3CCOCC3)cc2)c2cc[nH]c2c1=O
- IC50 [1]: 20 µM
- IC50 (TK-10): 20 µM
- IC50 (IGR-1): 20 µM
- IC50 [2]: 20 µM
- IC50 (Panc1005): 20 µM
- IC50 (JIYOYE): 2.85 µM
- IC50 (NCI-H187): 20 µM
- IC50 (SF-539): 20 µM
- IC50 [3]: 20 µM
- IC50 [4]: 20 µM
- IC50 (NCI-H929): 6.04 µM
- IC50 [5]: 20 µM
- IC50 (COLO-679): 20 µM
- IC50 (ML-2): 20 µM
- IC50 [6]: 20 µM
- IC50 (NB1): 20 µM
- IC50 [7]: 20 µM
- IC50 [8]: 20 µM
- IC50 (KYSE-510): 20 µM
- IC50 [9]: 20 µM
- IC50 [10]: 20 µM
- IC50 [11]: 11.1 µM
- IC50 (OAW-42): 20 µM
- IC50 (769-P): 20 µM
- IC50 [12]: 20 µM
- IC50 (MDA-MB-453): 20 µM
- IC50 [13]: 20 µM
- IC50 [14]: 20 µM
- IC50 (Skut1B): 20 µM
- IC50 (Ca-Ski): 20 µM
- IC50 (SW837): 20 µM
- IC50 [15]: 20 µM
- IC50 (KYSE-450): 20 µM
- IC50 (EFO-27): 20 µM
- IC50 (SNB-19): 20 µM
- IC50 (TOV112D): 20 µM
- IC50 (WM-115): 20 µM
- IC50 [16]: 20 µM
- IC50 (LN-229): 20 µM
- IC50 (MPC-11): 10.7 µM
- IC50 (KYSE-520 cell line): 20 µM
- IC50 [17]: 20 µM
- IC50 [18]: 20 µM
- IC50 [19]: 20 µM
- IC50 (SK-N-SH): 20 µM
- IC50 (MKN-74): 20 µM
- IC50 (COLO-829): 20 µM
- IC50 (SNU-475): 20 µM
- IC50 (LXFL 529): 20 µM
- IC50 [20]: 20 µM
- IC50 (CAKI-1): 20 µM
- IC50 (Hep 3B2): 20 µM
- IC50 (RL95-2): 20 µM
- IC50 (PANC-1): 20 µM
- IC50 (G-402): 4.76 µM
- IC50 [21]: 20 µM
- IC50 [22]: 20 µM
- IC50 [23]: 20 µM
- IC50 (HEC-1-A): 20 µM
- IC50 (HuCCT-1): 20 µM
- IC50 (U-266): 20 µM
